Series [1] deals with T1, Physcomitrella patens NADPH:cytochrome P450 reductase(s) (CPR or POR), in Pp_WT.
T1 construct: native reductase(s), four putative CPR genes; crude protein extract of untransformed moss with its own C4Hs; with trans-cinnamate 4-monooxygenase; trans-cinnamate 4-monooxygenase
The series is described as follows: HPLC of 4-coumaric acid formed (coupled C4H reaction), Michaelis-Menten fit. The format is biochemical, Physcomitrium patens. Conditions: 400 µM cinnamic acid, pH 7.0, 25 °C, 5 min; crude extract of untransformed moss; NADPH oxidised by CPR, read-out via C4H; read-out: apparent Km.

Series [2] concerns T2, Physcomitrella patens NADPH:cytochrome P450 reductase(s) (CPR or POR), in Pp_AaC4H.
T2 construct: native reductase(s) of the host moss, four putative CPR genes; crude protein extract of moss expressing C-terminally 6xHis-tagged AaC4H; with trans-cinnamate 4-monooxygenase (Anthoceros agrestis)
The series is described as above. It is filed as biochemical, Physcomitrium patens. Conditions: 400 µM cinnamic acid, pH 7.0, 25 °C, 5 min; crude extract; NADPH oxidised by CPR, read-out via C4H; read-out: apparent Km.

The subject of series [3] is T3, Pp_WT (PpC4Hs).
T3 construct: gene PpC4H_1; native, crude protein extract of untransformed moss; six putative C4H genes, only two named in the main text; with NADPH--cytochrome P450 reductase
In words: HPLC of 4-coumaric acid formed, Michaelis-Menten fit. The format is biochemical, Physcomitrium patens. The settings on record: 5 mM NADPH, pH 7.0, 25 °C, 5 min; crude extract of untransformed moss; read-out: apparent Km.

Substrate in series [4]: O=C(O)/C=C/c1ccccc1
In words: cells, lysate or membranes. The settings on record: 5 mM NADPH, pH 7.0, 25 °C, 5 min, crude extract with endogenous PpC4H background.

In general, Km refers to the substrate concentration at which the rate is half of its maximum.

For `NC(=O)C1=CN([C@@H]2O[C@H](COP(=O)(O)OP(=O)(O)OC[C@H]3O[C@@H](n4cnc5c(N)ncnc54)[C@H](OP(=O)(O)O)[C@@H]3O)[C@@H](O)[C@H]2O)C=CC1` [NADPH], the figures for the Km in series [1] and in series [2] were 92.3 ± 10.8 µM and 88 ± 19.5 µM, respectively.

`O=C(O)/C=C/c1ccccc1` [t-cinnamic acid]: the Km in series [3] was 25.1 ± 8.9 µM.

B1: Pp_AaC4H (AaC4H, CYP73A260) (Anthoceros agrestis) (protein)
chain: MASGETTLGSTNTMFLDALSILEALLATIAVLWLVKQVTSSRLKPPPGPLALPILGNWLQVGDDLNHRNLSDLAKKYGDIFLLRMGQRNVVVVSSPELAKEVLLTQGVEFGSRTRNVVFDIFTGKGQDMVFTVYGEHWRRMRRIMTVPFFTSKVVQQSRVAWEDETDRVIADLKTNPKYAAASTTGVVLRQRLQLLMYNTMYRLMFDRRFESEDDPLFVQLKALNGERSRLAQSFEYNYGDFIPVLRPLLRNYLKICQDIKDRRLALFKNHFLDERKKLLDTKRSQTAASTGKCAIDHILDAQKNGKINEDNVLYIVENINVAAIETTLWSMEWGLAELVNNPDIQQKVREELDHVLGKGTPLTEPDIQAGKLSYLAAVVKETLRLHMAIPLLVPHMNLHQARLGGYDIPAESKVLVNAWYLANNPALWKDPETFRPERFLEGDKGAEPNGTDFRFLPFGVGRRSCPGIILALPLLNLVLGRLVQSFLLTCPPGVEKLDLSEKGGQFSLHIAAHSNIVVKPRPDM
Regarding B1, the Km in series [4] is 17.3 ± 5.0 µM.
